Results published in ChEMBL document CHEMBL3352205, “Indazole- and indole-5-carboxamides: selective and reversible monoamine oxidase B inhibitors with subnanomolar potency” (J Med Chem, 2014).

Key:
[1] = biological target: T1, Amine oxidase [flavin-containing] A (Homo sapiens, UniProt P21397); experiment: Inhibition of human recombinant MAO-A expressed in baculovirus-infected insect cells using p-tyraimne substrate
T1 sequence (P21397 whole entry): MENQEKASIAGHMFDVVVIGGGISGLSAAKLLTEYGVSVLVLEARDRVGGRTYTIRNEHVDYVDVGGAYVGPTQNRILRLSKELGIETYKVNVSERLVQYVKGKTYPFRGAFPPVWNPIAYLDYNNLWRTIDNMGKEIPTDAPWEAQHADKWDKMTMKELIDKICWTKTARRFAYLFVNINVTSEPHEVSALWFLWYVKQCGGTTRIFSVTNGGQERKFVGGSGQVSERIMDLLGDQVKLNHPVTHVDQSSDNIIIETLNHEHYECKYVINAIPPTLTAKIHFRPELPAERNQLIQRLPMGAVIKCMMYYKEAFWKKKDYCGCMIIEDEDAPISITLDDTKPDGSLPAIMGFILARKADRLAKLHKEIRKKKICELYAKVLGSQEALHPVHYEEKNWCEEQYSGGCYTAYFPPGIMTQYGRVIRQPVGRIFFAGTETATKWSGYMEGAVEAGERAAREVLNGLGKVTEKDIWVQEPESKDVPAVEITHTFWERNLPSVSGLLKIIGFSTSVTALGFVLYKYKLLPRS

[2] = biological target: T2, Amine oxidase [flavin-containing] B (Homo sapiens, UniProt P27338); experiment: biochemical; type: cell-based
T2 sequence (P27338 whole entry): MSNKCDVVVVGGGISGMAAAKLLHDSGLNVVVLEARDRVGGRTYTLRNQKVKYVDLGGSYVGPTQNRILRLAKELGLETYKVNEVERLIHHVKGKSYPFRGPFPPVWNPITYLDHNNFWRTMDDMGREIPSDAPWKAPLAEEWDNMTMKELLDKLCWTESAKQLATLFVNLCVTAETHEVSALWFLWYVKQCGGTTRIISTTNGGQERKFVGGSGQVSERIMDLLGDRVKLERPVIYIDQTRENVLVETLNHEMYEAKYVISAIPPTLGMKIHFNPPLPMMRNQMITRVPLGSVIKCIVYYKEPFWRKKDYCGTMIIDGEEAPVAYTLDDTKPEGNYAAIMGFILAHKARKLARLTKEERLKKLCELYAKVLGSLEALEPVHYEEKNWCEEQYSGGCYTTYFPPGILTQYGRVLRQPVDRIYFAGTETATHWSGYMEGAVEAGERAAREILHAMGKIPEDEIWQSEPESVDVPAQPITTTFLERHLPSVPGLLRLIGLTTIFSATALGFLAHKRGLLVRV
Description: Inhibition of human recombinant MAO-B expressed in baculovirus-infected insect cells using p-tyraimne substrate

[3] = biological target: T3, Amine oxidase [flavin-containing] A (Rattus norvegicus, UniProt P21396); experiment: Inhibition of rat MAO-A from mitochondria-enriched rat liver fractions using p-tyraimne substrate
T3 sequence (P21396 whole entry): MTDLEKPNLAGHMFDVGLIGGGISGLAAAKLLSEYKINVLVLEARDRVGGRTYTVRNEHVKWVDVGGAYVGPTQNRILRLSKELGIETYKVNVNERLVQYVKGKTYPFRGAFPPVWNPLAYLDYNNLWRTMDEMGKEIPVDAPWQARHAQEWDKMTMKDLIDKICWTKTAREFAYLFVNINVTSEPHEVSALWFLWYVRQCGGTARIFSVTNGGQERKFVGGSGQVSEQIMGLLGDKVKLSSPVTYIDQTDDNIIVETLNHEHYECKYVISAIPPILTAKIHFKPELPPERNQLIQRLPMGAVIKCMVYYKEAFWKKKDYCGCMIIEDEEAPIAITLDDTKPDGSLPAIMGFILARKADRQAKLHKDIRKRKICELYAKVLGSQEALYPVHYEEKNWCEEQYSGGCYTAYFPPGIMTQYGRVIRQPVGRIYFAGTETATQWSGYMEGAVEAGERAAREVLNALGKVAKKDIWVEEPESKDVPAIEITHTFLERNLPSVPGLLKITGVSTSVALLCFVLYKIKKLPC

[4] = biological target: T4, Amine oxidase [flavin-containing] B (Rattus norvegicus, UniProt P19643); experiment: Inhibition of rat MAO-B from mitochondria-enriched rat liver fractions using p-tyraimne substrate
T4 sequence (P19643 whole entry): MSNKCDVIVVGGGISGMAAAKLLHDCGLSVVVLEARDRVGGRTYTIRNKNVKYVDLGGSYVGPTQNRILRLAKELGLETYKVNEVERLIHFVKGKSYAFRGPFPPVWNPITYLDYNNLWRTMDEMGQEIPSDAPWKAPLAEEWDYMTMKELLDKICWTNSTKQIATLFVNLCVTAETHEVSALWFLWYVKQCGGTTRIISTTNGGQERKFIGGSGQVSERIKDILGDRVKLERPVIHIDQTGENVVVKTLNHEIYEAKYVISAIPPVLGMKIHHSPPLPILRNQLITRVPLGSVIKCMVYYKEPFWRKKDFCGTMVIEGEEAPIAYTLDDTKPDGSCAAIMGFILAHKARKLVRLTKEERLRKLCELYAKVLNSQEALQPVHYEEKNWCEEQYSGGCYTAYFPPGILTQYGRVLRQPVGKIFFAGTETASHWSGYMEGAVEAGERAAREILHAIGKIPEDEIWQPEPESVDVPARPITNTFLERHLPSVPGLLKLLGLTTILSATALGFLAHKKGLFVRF

Homo sapiens = species: Homo sapiens; experiment: Selectivity index, ratio of IC50 for human recombinant MAO-A to IC50 for human recombinant MAO-B
[5] = biological target: T3, Amine oxidase [flavin-containing] A; experiment: Inhibition of rat MAO-A in rat-liver mitochondrial-fraction using [14C]-5-HT substrate
[6] = biological target: T4, Amine oxidase [flavin-containing] B; experiment: Inhibition of rat MAO-B in rat-liver mitochondrial-fraction using [14C]-PEA substrate
[7] = biological target: T2, Amine oxidase [flavin-containing] B; experiment: Reversible inhibition of human recombinant MAO-B expressed in baculovirus-infected insect cells using p-tyraimne substrate at 1 nM for 22 mins; settings: 0.001 µM

Row | IC50 ([1]; read-out: IC50) | IC50 [2] | IC50 [3] | IC50 [4] | Ratio IC50 (Homo sapiens) | IC50 [1] | IC50 [5] | IC50 [6] | SMILES | inhibition (INH) [7]
1 | > 10 µM | < 10000 nM | > 10 µM | 3280 nM | – | – | – | – | O=C(Nc1ccc(O)c(Cl)c1)c1ccc2cn[nH]c2c1 | –
2 | > 10 µM | 6220 nM | > 10 µM | > 10000 nM | 2 | – | – | – | O=C(Nc1ccc(Cl)c(O)c1)c1ccc2cn[nH]c2c1 | –
3 | – | – | – | – | – | – | 22 nM | 1250 nM | C#CCNCc1cc2cc(OCc3ccccc3)ccc2[nH]1 | –
4 | > 10 µM | 316 nM | > 10 µM | 2670 nM | > 31 | – | – | – | O=C(Nc1ccc(Cl)c(F)c1)c1ccc2cn[nH]c2c1 | –
5 | > 10 µM | 335 nM | > 10 µM | 423 nM | > 29 | – | – | – | O=C(Nc1cc(Cl)cc(Cl)c1)c1ccc2cn[nH]c2c1 | –
6 | > 10 µM | 12.4 nM | > 10 µM | 138 nM | 806 | – | – | – | O=C(Nc1ccc2[nH]ncc2c1)c1ccc(Cl)c(Cl)c1 | –
7 | > 10 µM | 117 nM | > 10 µM | 708 nM | > 86 | – | – | – | O=C(Nc1ccccc1)c1ccc2[nH]ncc2c1 | –
8 | > 10 µM | 2590 nM | > 10 µM | > 10000 nM | – | – | – | – | O=C(Nc1ccc2[nH]ncc2c1)c1cccc(Cl)c1Cl | –
9 | > 10 µM | > 10000 nM | > 10 µM | > 10000 nM | – | – | – | – | COc1ccc(NC(=O)c2ccc3cn[nH]c3c2)cc1OC | –
10 | – | – | – | – | > 81 | – | – | – | O=C(Nc1ccc(O)c(Cl)c1)c1ccc2[nH]ncc2c1 | –
11 | 1.3 µM | – | 6.79 µM | 1.01 nM | – | – | – | – | O=C(Nc1ccc(Cl)c(Cl)c1)c1ccc2[nH]ccc2c1 | –
12 | > 10 µM | 2.75 nM | > 10 µM | 2.73 nM | 3640 | – | – | – | O=C(Nc1cc(Cl)cc(Cl)c1)c1ccc2[nH]ncc2c1 | –
13 | < 10 µM | – | > 10 µM | – | – | – | – | – | Clc1ccc(/N=C/c2ccc3[nH]ncc3c2)cc1Cl | –

Continued, compound first:

Row | SMILES | IC50 ([1]; read-out: IC50) | IC50 [2] | IC50 [3] | IC50 [4] | Ratio IC50 (Homo sapiens) | IC50 [1] | IC50 [5] | IC50 [6] | inhibition (INH) [7]
14 | COc1ccc(NC(=O)c2ccc3[nH]ncc3c2)cc1OC | – | – | – | – | > 54 | – | – | – | –
15 | O=[N+]([O-])c1ccc2[nH]ncc2c1 | – | 2500 nM | – | – | – | Not Active | – | – | –
16 | O=C(Nc1ccc(Cl)c(Cl)c1)c1ccc2nncn2c1 | > 10 µM | 2270 nM | > 10 µM | > 10000 nM | > 4 | – | – | – | –
17 | O=C(Nc1ccc(F)c(F)c1)c1ccc2[nH]ncc2c1 | – | – | – | – | 6290 | – | – | – | –
18 | Cn1ncc2cc(/C=N/c3ccc(Cl)c(Cl)c3)ccc21 | < 10 µM | 1.03 nM | > 10 µM | 4.55 nM | 9710 | – | – | – | –
19 | O=C(Nc1cnc(Cl)c(Cl)c1)c1ccc2[nH]ncc2c1 | – | – | – | – | 1840 | – | – | – | –
20 | O=C(Nc1ccc(F)c(F)c1)c1ccc2cn[nH]c2c1 | > 10 µM | 1300 nM | > 10 µM | < 10000 nM | > 7 | – | – | – | –
21 | O=C(Nc1ccc(Cl)c(F)c1)c1ccc2[nH]ncc2c1 | > 10 µM | – | – | – | 15000 | – | – | – | –
22 | COc1ccc(NC(=O)c2ccc3cn[nH]c3c2)cc1Cl | > 10 µM | 1280 nM | > 10 µM | < 10000 nM | 8 | – | – | – | –
23 | O=C(Nc1ccc(Cl)c(Cl)c1)c1ccc2[nH]ncc2c1 | ≥ 10 µM | – | > 10 µM | 1.43 nM | 17100 | – | – | – | Active
24 | COc1cc(NC(=O)c2ccc3[nH]ncc3c2)ccc1Cl | – | – | – | – | 2020 | – | – | – | –
25 | O=C(Nc1ccc2[nH]ncc2c1)c1c(F)cccc1Cl | > 10 µM | 3300 nM | > 10 µM | > 10000 nM | – | – | – | – | –
26 | O=C(Cc1ccc(Cl)c(Cl)c1)Nc1ccc2[nH]ncc2c1 | > 10 µM | 882 nM | > 10 µM | > 10000 nM | > 11 | – | – | – | –
27 | O=C(Nc1ccc(F)c(Cl)c1)c1ccc2cn[nH]c2c1 | > 10 µM | 234 nM | > 10 µM | 1070 nM | > 42 | – | – | – | –
28 | Cn1ccc2cc(C(=O)Nc3ccc(Cl)c(Cl)c3)ccc21 | > 10 µM | 2.26 nM | > 10 µM | 1.11 nM | 4420 | – | – | – | –
29 | COc1ccc(NC(=O)c2ccc3[nH]ncc3c2)cc1Cl | – | – | – | – | 2920 | – | – | – | –
30 | O=C(Nc1ccc(Cl)c(Cl)c1)c1ccc2cn[nH]c2c1 | 3.31 µM | 67.1 nM | < 10 µM | 466 nM | > 49 | – | – | – | –
31 | O=C(NCc1ccc(Cl)c(Cl)c1)c1ccc2[nH]ncc2c1 | > 10 µM | 388 nM | > 10 µM | 837 nM | > 25 | – | – | – | –
32 | O=C(Nc1ccc(Cl)c(O)c1)c1ccc2[nH]ncc2c1 | – | – | – | – | 80 | – | – | – | –
33 | O=C(Nc1ccc2cn[nH]c2c1)c1cnc(N2CCOCC2)c(Cl)c1 | > 10 µM | 220 nM | > 10 µM | 1990 nM | > 9 | – | – | – | –
34 | COc1cc(NC(=O)c2ccc3cn[nH]c3c2)ccc1Cl | > 10 µM | 2760 nM | > 10 µM | > 10000 nM | 4 | – | – | – | –
35 | Cn1cc(C(=O)Nc2ccc3[nH]ncc3c2)ccc1=O | > 10 µM | > 10000 nM | > 10 µM | > 10000 nM | – | – | – | – | –
36 | O=C(Nc1ccc(Cl)c(Cl)c1)c1ccc2nccn2c1 | > 10 µM | 141 nM | > 10 µM | 1140 nM | 71 | – | – | – | –
